Reference: PMC12406652 (Antimicrobial Agents and Chemotherapy, 2025)
Marks after values point to notes of the source that are not given here.

What was measured:
[1] = Plasma pharmacokinetics after single ascending doses of LED-E (VNRX-7145-101 Part 1); format: in vivo; conditions: human, oral; for AUC(0-inf) / Cmax / half-life: geometric mean (CV %); for half-life: read-out: t1/2 (converted); for Tmax: median (range)
Method: (§1) Quantitation used separate weighted 1 /x^2 linear least-squares regression analyses generated from calibration standards. Exploratory screening for metabolites was performed for some samples. […] Single-dose plasma pharmacokinetic parameters were determined in Part 1, and both single-dose (Day 1) and multiple-dose (Day 12) parameters were determined in Part 2. […] Dose proportionality was analyzed using a power model in which pharmacokinetic exposure parameters and dose were converted to the natural log and linear regression results were reported, with the slope as the power estimate ([15]). […] In Part 2, achievement of steady-state concentrations was assessed using Tukey’s multiple comparison test for pre-dose and all dosing days (Days 2 to 10) for each dose level separately. In both studies, plasma pharmacokinetic parameters were calculated using WinNonlin (Certara; Radnor, PA), and urine pharmacokinetic parameters were calculated using SAS (SAS Institute; Cary, NC).

[2] = Plasma pharmacokinetics on Day 10 after multiple doses of LED-E q8h (VNRX-7145-101 Part 2, VNRX-7145-102 Part 2); format: in vivo, human; conditions: for AUC / Cmax / Tmax / half-life: human, oral, plasma; for Tmax: median (range)
Method: as §1, with “Single-dose plasma pharmacokinetic parameters were determined in Part 1, and both single-dose (Day 1) and multiple-dose (Day 12) parameters were determined in Part 2.” left out, “separately. […] Plasma pharmacokinetic parameters were calculated using noncompartmental analysis of the plasma and urine concentration-time data. […] AUCinf and Cmax were natural log-transformed before analysis, using a linear mixed effects model. […]” for “separately.”

[3] = Urinary recovery on Day 10 after multiple doses of CTB + LED-E q8h (VNRX-7145-102 Part 3); conditions: urine, geometric mean (geometric CV %); for CL renal: human, oral, CLr
[4] = Plasma pharmacokinetics on Day 10 after multiple doses of CTB + LED-E q8h (VNRX-7145-102 Part 3); conditions: human, oral; for AUC: AUCtau; for AUC / Cmax / half-life: geometric mean (CV %)
[5] = Urinary pharmacokinetics on Day 10 after multiple doses of LED-E q8h; format: in vivo, human; conditions: urine; for CL renal: oral; for CL renal / Ae0–8 / Ae0–48: geometric mean (geometric CV %); for Ae0–8 / Ae0–48: after last dose (Day 10)
Method: Quantitation used separate weighted 1 /x^2 linear least-squares regression analyses generated from calibration standards. Exploratory screening for metabolites was performed for some samples. […] Plasma pharmacokinetic parameters were calculated using noncompartmental analysis of the plasma and urine concentration-time data. […] AUCinf and Cmax were natural log-transformed before analysis, using a linear mixed effects model. […] In both studies, plasma pharmacokinetic parameters were calculated using WinNonlin (Certara; Radnor, PA), and urine pharmacokinetic parameters were calculated using SAS (SAS Institute; Cary, NC).

[6] = Urinary pharmacokinetics after single doses of LED-E; format: in vivo, human; conditions: urine, geometric mean (geometric CV %); for CL renal: human, oral
Method: Plasma and urine pharmacokinetics samples were assayed for LED-E, LED, and CTB, as appropriate using validated bioanalytical methods. […] Quantitation used separate weighted 1 /x^2 linear least-squares regression analyses generated from calibration standards. Exploratory screening for metabolites was performed for some samples. In both studies, plasma pharmacokinetic parameters were calculated using WinNonlin (Certara; Radnor, PA), and urine pharmacokinetic parameters were calculated using SAS (SAS Institute; Cary, NC).

[7] = 1000 mg, single dose LED-E 1,000 mg
[8] = Day 10, LED-E 150 mg q8h, geometric mean (CV %)
[9] = Day 10, LED-E 300 mg q8h, geometric mean (CV %)
[10] = Day 10, LED-E 500 mg q8h, geometric mean (CV %)
[11] = Day 10, CTB 400 mg + LED-E 300 mg q8h
[12] = Day 10, CTB 400 mg + LED-E 500 mg q8h
[13] = multiple doses LED-E 150 mg q8h
[14] = multiple doses LED-E 300 mg q8h
[15] = multiple doses LED-E 500 mg q8h

AUC(0-inf) [1, 7]: 114000 ng·h/mL
Cmax [1, 7]: 26500 ng/mL
half-life [1, 7]: 11.3 h
Tmax [1, 7]: 2 h
AUC(0-inf) ([1]; single dose LED-E 100 mg): 15400 ng·h/mL
Cmax ([1]; single dose LED-E 100 mg): 4010 ng/mL
half-life ([1]; single dose LED-E 100 mg): 5.53 h
AUC(0-inf) ([1]; single dose LED-E 200 mg): 26200 ng·h/mL
Cmax ([1]; single dose LED-E 200 mg): 5970 ng/mL
half-life ([1]; single dose LED-E 200 mg): 6.1 h
AUC(0-inf) ([1]; single dose LED-E 300 mg): 33100 ng·h/mL
Cmax ([1]; single dose LED-E 300 mg): 7570 ng/mL
half-life ([1]; single dose LED-E 300 mg): 7.48 h
AUC(0-inf) ([1]; single dose LED-E 500 mg): 69300 ng·h/mL
Cmax ([1]; single dose LED-E 500 mg): 16800 ng/mL
half-life ([1]; single dose LED-E 500 mg): 11.3 h
AUC(0-inf) ([1]; single dose LED-E 800 mg): 125000 ng·h/mL
Cmax ([1]; single dose LED-E 800 mg): 24000 ng/mL
half-life ([1]; single dose LED-E 800 mg): 8.59 h
Tmax ([1]; single dose LED-E 800 mg): 2 h
Steady-state plasma concentrations reached by ([2]; LED-E q8h dosing): ≤ 3 days
AUC ([2]; Day 10, LED-E 75 mg q8h, 0 to 8 h post-dose, geometric mean (CV %)): 13900 ng·h/mL
Cmax ([2]; Day 10, LED-E 75 mg q8h, geometric mean (CV %)): 3690 ng/mL
Tmax ([2]; Day 10, LED-E 75 mg q8h): 1 h
AUC [2, 8]: 20800 ng·h/mL
Cmax [2, 8]: 5870 ng/mL
Tmax ([2]; Day 10, LED-E 150 mg q8h): 0.75 h
AUC [2, 9]: 40900 ng·h/mL
Cmax [2, 9]: 11600 ng/mL
Tmax ([2]; Day 10, LED-E 300 mg q8h): 1.13 h
AUC [2, 10]: 70000 ng·h/mL
Cmax [2, 10]: 15800 ng/mL
half-life ([2]; 75 mg, Day 10, LED-E 75 mg q8h, geometric mean (CV %), read-out: t1/2 (converted)): 9.3 h
half-life ([2]; 150 mg, Day 10, LED-E 150 mg q8h, geometric mean (CV %), read-out: t1/2 (converted)): 11.4 h
half-life ([2]; 300 mg, Day 10, LED-E 300 mg q8h, geometric mean (CV %), read-out: t1/2 (converted)): 11.3 h
half-life ([2]; 500 mg, Day 10, LED-E 500 mg q8h, geometric mean (CV %), read-out: t1/2 (converted)): 12.5 h
half-life ([2]; Day 10, after 10 days of q8h dosing, across dose groups, read-out: Terminal half-life (t1/2) in plasma): 11 to 12 h
Ae0–8 [3, 11]: 156 (11.3) mg
Ae0–8 [3, 12]: 243 (22.8)^d mg
CL renal [3, 11]: 85.8 mL/min
CL renal [3, 12]: 74.8 mL/min
AUC [4, 11]: 33300 ng·h/mL
AUC [4, 12]: 62200 ng·h/mL
Cmax [4, 11]: 8470 ng/mL
Cmax [4, 12]: 16200 ng/mL
Tmax ([4]; Tmax, Day 10, CTB 400 mg + LED-E 300 mg q8h, median (range)): 1 h
half-life ([4]; t1/2, Day 10, CTB 400 mg + LED-E 300 mg q8h): 11.4 h
half-life ([4]; t1/2, Day 10, CTB 400 mg + LED-E 500 mg q8h): 12.3 h
CL renal ([5]; human, multiple doses LED-E 75 mg q8h): 44.2 mL/min
CL renal ([5]; human, multiple doses LED-E 150 mg q8h): 51.8 mL/min
CL renal ([5]; human, multiple doses LED-E 300 mg q8h): 51.5 mL/min
CL renal ([5]; human, multiple doses LED-E 500 mg q8h): 82 mL/min
bioavailability ([5]; human, after oral dosing of LED-E, inferred from urinary excretion): ≥ 68%
Ae0–8 ([5]; multiple doses LED-E 75 mg q8h): 43.1 (6.95) mg
Ae0–48 ([5]; multiple doses LED-E 75 mg q8h): 51.6 (7.80) mg
Ae0–48 ([5]; multiple doses LED-E 75 mg q8h, listed as LED): 51.6 mg
Ae0–8 [5, 13]: 73.1 (10.0) mg
Ae0–48 [5, 13]: 86.6 (11.1) mg
Ae0–8 [5, 14]: 137 (34.2) mg
Ae0–48 [5, 14]: 166 (27.8) mg
Ae0–8 [5, 15]: 283 (7.8) mg
Ae0–48 [5, 15]: 345 (11.2) mg
Ae0–48 ([5]; multiple doses LED-E 500 mg q8h, listed as LED): 345 mg
CL renal ([6]; single dose LED-E 300 mg): 66.3 mL/min
CL renal ([6]; single dose LED-E 500 mg): 53.3 mL/min
CL renal ([6]; single dose LED-E 800 mg): 58.7 mL/min
CL renal ([6]; single dose LED-E 1000 mg): 75.5 mL/min
Ae0–8 ([6]; single dose LED-E 300 mg): 113 (23.3) mg
Ae0–48 ([6]; single dose LED-E 300 mg): 131 (20.3) mg
Ae0–8 ([6]; single dose LED-E 500 mg): 190 (14.1) mg
Ae0–48 ([6]; single dose LED-E 500 mg): 220 (12.2) mg
Ae0–8 ([6]; single dose LED-E 800 mg): 364 (6.14) mg
Ae0–48 ([6]; single dose LED-E 800 mg): 438 (3.3) mg
Ae0–8 ([6]; single dose LED-E 1000 mg): 459 (16.6) mg
Ae0–48 ([6]; single dose LED-E 1000 mg): 515 (16.9) mg
SMILES: CCC(=O)N[C@H]1Cc2cccc(C(=O)O)c2OB1O [Ledaborbactam, ledaborbactam]
